Test results published in patent EP0097439A2, “A crystalline prostaglandin salt” (THE UPJOHN COMPANY, priority 1982, dated 1984).
Where a name gives a salt, the structure may show the parent alone. Read-outs that look alike come from different tables or passages of the source.

Key:
[1] = Water content / hygroscopicity of the crystalline solid; type: physicochemical
Procedure: All solvents used in this example are degassed with nitrogen using a gas dispersion tube for 15 min prior to use. To a stirred solution of 4.82 g of 9-deoxo-16,16-dimethyl-9-methylene-PGE2 in 50 ml of methanol is added a solution of 880 mg of potassium carbonate in 15 ml of water. The reaction mixture is then allowed to stand for 5 min at 25°C and then concentrated under reduced pressure at 35°C. Eight 250 ml portions of anhydrous tetrahydrofuran are added and evaporated to insure complete removal of water. The residue, a pale yellow foam, is dissolved in 15 ml of methanol and added dropwise under a nitrogen atmosphere with vigorous stirring to one liter of diethyl ether. The initial cloudy suspension yields a gum-like residue on the walls of the reaction vessel after about 1 hr. Continued vigorous stirring for 24 hr leads to gradual crystallization and resuspension as a uniform, easily filterable solid. This suspension is then filtered using a medium porosity sintered glass funnel. The solids are washed with 15 ml of fresh diethyl ether at 25°C. After drying for 2 hr in a vacuum desiccator at 25°C, a colorless free-flowing crystalline solid, 5.13 g, is obtained, pure crystalline 9-deoxo-16,16-dimethyl-9-methylene-PGE2 potassium salt. IR absorptions (cm^-1) are observed at 3134, 1652, 1572, 1467, 1392, 1337, 1364, 1344, 1102, 1024, 974, and 883. […]

[2] = Plasma levels of 9-deoxo-16,16-dimethyl-9-methylene-PGE2 by radioimmunoassay after insertion of a suppository; type: in vivo, Rhesus monkeys (Macaca mulatta); conditions: rhesus monkey, plasma, 30 mg, plasma, read-out: Drug Levels
From the text: A. Midtrimester pregnant female Rhesus monkeys (Macaca mulatta) are used. (The first day of menstrual bleeding is designated Day 1 of the menstrual cycle; the first day a female is placed with a male for breeding is designated Day 1 of pregnancy. Pregnancy is confirmed by abdominal palpation of the uterus.)
Blood samples are collected into heparinized syringes at specified times following insertion of a suppository in pregnant or non- pregnant monkeys. Plasma is extracted and assayed for 9-deoxo-16,16-dimethyl-9-methylene-PGE2 content by radioimmunoassay.
C. Six suppository lots are prepared (4), each containing 9- deoxo-16,16-dimethyl-9-methylene-PGE2 or its crystalline potassium salt (Examples 1 and 2). Two lots are made with Witepsol H15 alone as the suppository base, two with Witepsol HIS wax plus 2% colloidal silicon dioxide (CSD) and two with Witepsol H15 plus 2% CSD plus 10% triacetin. Suppositories are prepared using Witepsol H15 suppository wax. Free acid or potassium salt is dispersed in the hot wax using a homogenizer. Two percent colloidal silicon dioxide (CSD) is mixed in by further homogenization. In the third formulation, triacetin (10%) is added before the CSD and then homogenized for one minute. Suppositories are formed in 800 mg aluminum molds and are stored at 4°C until used.
D. The plasma levels of 9-deoxo-16,16-d1methy1-9-methy1ene-PGE2 in monkeys treated with 6 formulations containing either 9-deoxo-16,16-dimethyl-9-methylene-PGE2 free acid or potassium salt are shown in Tables 1-6. In general, higher blood levels are measured in pregnant Rhesus monkeys than in non-pregnant monkeys.

[3] = Monkey #4, 30 mg Potassium Salt in H15 Suppositories
[4] = Monkey #5, 30 mg Potassium Salt in H15 Suppositories
[5] = Monkey #6 (pregnant animal with uterine recording), 30 mg Potassium Salt in H15 Suppositories
[6] = Monkey #10, 30 mg Potassium Salt in H15 Plus 2% CSD Suppositories
[7] = Monkey #11, 30 mg Potassium Salt in H15 Plus 2% CSD Suppositories
[8] = Monkey #12 (pregnant animal with uterine recording), 30 mg Potassium Salt in H15 Plus 2% CSD Suppositories
[9] = Monkey #16, 30 mg Potassium Salt in H15 Plus 2% CSD + 10% Triacetin Suppositories
[10] = Monkey #17, 30 mg Potassium Salt in H15 Plus 2% CSD + 10% Triacetin Suppositories
[11] = Monkey #18, 30 mg Potassium Salt in H15 Plus 2% CSD + 10% Triacetin Suppositories

Water content ([1]; after 5 days at ambient humidity): 0.16% | hygroscopicity ([1]; crystalline solid): non-hygroscopic | concentration at 0.25 h [2, 3]: 128 ng/mL | concentration at 0.5 h ([2]; Monkey #4, 0.5 Hours, 30 mg Potassium Salt in H15 Suppositories): 3.72 ng/mL | concentration at 1.5 h [2, 3]: 0.41 ng/mL | concentration at 2 h [2, 3]: 0.86 ng/mL | concentration at 3 h [2, 3]: 7.52 ng/mL | concentration at 4 h [2, 3]: 8.39 ng/mL | concentration at 6 h [2, 3]: 17.9 ng/mL | concentration at 24 h [2, 3]: 21.7 ng/mL | concentration at 0.25 h [2, 4]: 10.9 ng/mL | concentration at 1 h [2, 4]: 1.42 ng/mL | concentration at 1.5 h [2, 4]: 5.91 ng/mL | concentration at 2 h [2, 4]: 11.5 ng/mL | concentration at 3 h [2, 4]: 14.2 ng/mL | concentration at 4 h [2, 4]: 22.9 ng/mL | concentration at 6 h [2, 4]: 25 ng/mL | concentration at 24 h [2, 4]: 16.2 ng/mL | concentration at 0.25 h [2, 5]: 76.6 ng/mL | concentration at 0.5 h ([2]; Monkey #6 (pregnant animal with uterine recording), 0.5 Hours, 30 mg Potassium Salt in H15 Suppositories): 68.4 ng/mL | concentration at 1 h [2, 5]: 29.6 ng/mL | concentration at 1.5 h [2, 5]: 77.3 ng/mL | concentration at 2 h [2, 5]: 28.4 ng/mL | concentration at 3 h [2, 5]: 41.7 ng/mL | concentration at 4 h [2, 5]: 42.8 ng/mL | concentration at 6 h [2, 5]: 20.2 ng/mL | concentration at 24 h [2, 5]: 7.77 ng/mL | concentration at 0.25 h [2, 6]: 20.4 ng/mL | concentration at 1 h [2, 6]: 1.5 ng/mL | concentration at 1.5 h [2, 6]: 1.7 ng/mL | concentration at 2 h [2, 6]: 3.57 ng/mL | concentration at 3 h [2, 6]: 12.4 ng/mL | concentration at 4 h [2, 6]: 20.7 ng/mL | concentration at 6 h [2, 6]: 53.8 ng/mL | concentration at 24 h [2, 6]: 16 ng/mL | concentration at 0.5 h ([2]; Monkey #10, .5 Hours, 30 mg Potassium Salt in H15 Plus 2% CSD Suppositories): 2.39 ng/mL | concentration at 0.25 h [2, 7]: 19.8 ng/mL | concentration at 1 h [2, 7]: 6.61 ng/mL | concentration at 1.5 h [2, 7]: 8.13 ng/mL | concentration at 2 h [2, 7]: 9.8 ng/mL | concentration at 3 h [2, 7]: 9.48 ng/mL | concentration at 4 h [2, 7]: 18.7 ng/mL | concentration at 6 h [2, 7]: 28.7 ng/mL | concentration at 24 h [2, 7]: 23.4 ng/mL | concentration at 0.5 h ([2]; Monkey #11, .5 Hours, 30 mg Potassium Salt in H15 Plus 2% CSD Suppositories): 14 ng/mL | concentration at 0.25 h [2, 8]: 104 ng/mL | concentration at 1 h [2, 8]: 40.9 ng/mL | concentration at 1.5 h [2, 8]: 91.1 ng/mL | concentration at 2 h [2, 8]: 66.5 ng/mL | concentration at 3 h [2, 8]: 51.5 ng/mL | concentration at 4 h [2, 8]: 36.1 ng/mL | concentration at 6 h [2, 8]: 22.5 ng/mL | concentration at 24 h [2, 8]: 6.04 ng/mL | concentration at 0.5 h ([2]; Monkey #12 (pregnant animal with uterine recording), .5 Hours, 30 mg Potassium Salt in H15 Plus 2% CSD Suppositories): 55.7 ng/mL | concentration at 0.25 h [2, 9]: 7.45 ng/mL | concentration at 0.5 h ([2]; Monkey #16, 0.5 Hours, 30 mg Potassium Salt in H15 Plus 2% CSD + 10% Triacetin Suppositories): 7 ng/mL | concentration at 1 h [2, 9]: 12.6 ng/mL | concentration at 1.5 h [2, 9]: 19.9 ng/mL | concentration at 2 h [2, 9]: 40.2 ng/mL | concentration at 3 h [2, 9]: 45.5 ng/mL | concentration at 4 h [2, 9]: 31.4 ng/mL | concentration at 6 h [2, 9]: 34.5 ng/mL | concentration at 24 h [2, 9]: 14.2 ng/mL | concentration at 0.25 h [2, 10]: 7.98 ng/mL | concentration at 0.5 h ([2]; Monkey #17, 0.5 Hours, 30 mg Potassium Salt in H15 Plus 2% CSD + 10% Triacetin Suppositories): 2.15 ng/mL | concentration at 1 h [2, 10]: 1.27 ng/mL | concentration at 1.5 h [2, 10]: 1.86 ng/mL | concentration at 2 h [2, 10]: 1.75 ng/mL | concentration at 3 h [2, 10]: 20.1 ng/mL | concentration at 4 h [2, 10]: 3.13 ng/mL | concentration at 6 h [2, 10]: 6.97 ng/mL | concentration at 24 h [2, 10]: 21.9 ng/mL | concentration at 0.25 h [2, 11]: 56.8 ng/mL | concentration at 0.5 h ([2]; Monkey #18, 0.5 Hours, 30 mg Potassium Salt in H15 Plus 2% CSD + 10% Triacetin Suppositories): 207 ng/mL | concentration at 1 h [2, 11]: 64.4 ng/mL | concentration at 1.5 h [2, 11]: 38.3 ng/mL | concentration at 2 h [2, 11]: 87.2 ng/mL | concentration at 3 h [2, 11]: 47.8 ng/mL | concentration at 4 h [2, 11]: 35.5 ng/mL | concentration at 6 h [2, 11]: 33.9 ng/mL | concentration at 24 h [2, 11]: 8.31 ng/mL
SMILES: C=C1C[C@@H](O)[C@H](/C=C/[C@@H](O)C(C)(C)CCCC)[C@H]1C/C=C\CCCC(=O)O [Potassium Salt, 9-deoxo-16,16-dimethyl-9-methylene-PGE2 potassium salt]
